Measurements taken from patent publication US12552826B2, “PRMT5 inhibitors” (Merck Sharp & Dohme LLC, priority 2018, dated 2026).
Read-outs that look alike come from different tables or passages of the source.

How the values were obtained:
[1] = target: T1, PRMT5-MEP50 enzyme complex (Homo sapiens, UniProt O14744); assay: PRMT5-MEP50 Enzyme Methylation Assay; assay type: biochemical
T1 construct: Full-length (FL)-PRMT5-MEP50 enzyme complex (recombinant proteins from baculovirus-transfected Sf21 cells); made in house; host or cells: baculovirus-transfected Sf21 insect cells
T1 sequence (O14744 whole entry): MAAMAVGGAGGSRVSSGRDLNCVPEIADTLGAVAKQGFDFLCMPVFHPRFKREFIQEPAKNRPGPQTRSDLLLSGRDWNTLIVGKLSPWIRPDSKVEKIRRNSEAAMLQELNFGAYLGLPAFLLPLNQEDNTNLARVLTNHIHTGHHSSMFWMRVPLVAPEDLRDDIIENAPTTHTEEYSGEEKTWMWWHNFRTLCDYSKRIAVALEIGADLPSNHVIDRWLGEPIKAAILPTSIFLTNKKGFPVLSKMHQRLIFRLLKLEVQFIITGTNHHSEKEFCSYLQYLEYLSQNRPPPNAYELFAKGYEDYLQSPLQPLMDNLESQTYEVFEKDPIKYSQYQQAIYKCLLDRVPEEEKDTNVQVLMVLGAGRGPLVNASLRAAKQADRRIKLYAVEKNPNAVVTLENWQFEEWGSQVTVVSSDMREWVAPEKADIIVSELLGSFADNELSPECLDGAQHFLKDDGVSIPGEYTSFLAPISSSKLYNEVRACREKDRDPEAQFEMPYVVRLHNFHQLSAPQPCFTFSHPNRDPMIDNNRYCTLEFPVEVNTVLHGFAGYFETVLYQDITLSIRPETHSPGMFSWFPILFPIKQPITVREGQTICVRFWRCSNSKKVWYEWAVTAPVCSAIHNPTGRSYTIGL
T1 sequence (Q9BQA1 whole entry partner): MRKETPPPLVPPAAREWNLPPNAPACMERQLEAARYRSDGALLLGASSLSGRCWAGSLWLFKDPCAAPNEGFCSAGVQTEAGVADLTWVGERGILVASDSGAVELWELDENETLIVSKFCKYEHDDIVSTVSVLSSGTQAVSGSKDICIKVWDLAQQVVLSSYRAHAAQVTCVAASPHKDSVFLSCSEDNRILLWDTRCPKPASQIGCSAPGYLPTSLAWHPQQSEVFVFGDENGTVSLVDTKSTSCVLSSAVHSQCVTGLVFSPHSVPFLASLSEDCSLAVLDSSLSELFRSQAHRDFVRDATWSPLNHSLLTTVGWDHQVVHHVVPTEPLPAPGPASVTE
Experimental: PRMT5-MEP50 biochemical assay is a direct measurement of the methylation activity of the enzyme complex on a short peptide substrate derived from the N-terminus of H4 histone. Methylation experiment is performed with recombinant PRMT5-MEP50 protein complex. The assessment of inhibitory effect of small molecules is measured by the effectiveness of the compounds to inhibit this reaction (EC50).
In this assay, the potency (EC50) of each compound was determined from a twenty-point (1:2 serial dilution; top compound concentration of 100000 nM) titration curve using the following outlined procedure. To each well of a white ProxiPlus 384 well-plate, 100 nL of compound (1% DMSO in final assay volume of 10 μL) was dispensed, followed by the addition of 8 μL of 1× assay buffer (50 mM Bicine pH 8.0, 1 mM DTT, 0.004% Tween20, 0.01% BSA) containing 1.25 nM of Full-length (FL)-PRMT5-MEP50 enzyme complex (recombinant proteins from baculovirus-transfected Sf21 cells: FL-PRMT5; MW=[…] and FL-MEP50; MW=38614) and 1 μL of 150 μM S-(5′-Adenosyl)-L-Methionine Chloride (SAM). Plates were sealed and placed in a 37° C. humidified chamber for a 60 minutes pre-incubation with compound. Subsequently, each reaction was initiated by the addition of 1 μL 1× assay buffer containing 750 nM biotinylated H4R3 (Me1) peptide. The final reaction in each well of 10 μL consists of 1.0 nM PRMT5-MEP50, 75 nM biotinylated-peptide, and 15 μM SAM. Methylation reactions were allowed to proceed for 150 minutes in a sealed plate at 37° C. Reactions were immediately quenched by the addition of 1 μL of 5% formic acid. Plates were then frozen and shipped to SAMDITM Tech Inc. to determine the percent conversion from H4R^3 (Me1) to H4R^3 (Me2). Dose-response curves were generated by plotting percent effect (% product conversion; Y-axis) vs. Log10 compound concentrations (X-axis). EC50 values were determined by non-linear regression according to models for either sigmoidal (4 parameters) or biphasic (7 parameters) dose-response curves.

PRMT5 = target: T2, PRMT5 (Homo sapiens, UniProt O14744); assay: PRMT5 Cell Target Engagement (TE) Assay; assay type: cell-based; details: MCF-7 cells, 3 days treatment, nuclear SDMA by high content imaging
T2 construct: endogenous in cells; host or cells: MCF-7
T2 sequence (O14744 whole entry): as the sequence (O14744 whole entry) above
T2 sequence (Q9BQA1 whole entry partner): as the sequence (Q9BQA1 whole entry partner) above
Method in brief: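 MCF-7 cells seeded 5 h, then treated 3 days at 37 °C with 10-point 1:3 dilutions from 10000 nM. Fixed cells immunostained for SDMA with AF488 secondary; nuclear intensity imaged per cell and expressed as % inhibition vs DMSO. EC50 from 4-parameter robust fit.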

[2] = recombinant FL-PRMT5-MEP50, biotinylated H4R3(Me1) peptide, 15 μM SAM, single EC50 (4 parameter sigmoidal fit) or first EC50 of 7 parameter biphasic fit, read-out: Enzyme Methylation Assay (EC50 or EC50_1)
[3] = second EC50 of 7 parameter biphasic fit, read-out: Enzyme Methylation Assay (EC50_2)

## C[C@@]1(O)[C@@H]([C@@H](O)c2cccc3c2CNCC3)O[C@@H](n2ccc3c(N)ncnc32)[C@@H]1O [Example 71, 7-[(5S)-3-C-methyl-5-C-(1,2,3,4-tetrahydroisoquinolin-8-yl)-beta-D-ribofuranosyl]-7H-pyrrolo[2,3-d]pyrimidin-4-amine]
[1]; [2]
  EC50: 15.5 nM
[1]; [3]
  EC50: 1700 nM
PRMT5
  EC50: > 10000 nM

## C[C@@]1(O)[C@@H]([C@H](O)c2ccc(Cl)c(Cl)c2)O[C@@H](n2ccc3c(N)ncnc32)[C@@H]1O [Example 13, 7-[(5R)-5-C-(3,4-dichlorophenyl)-3-C-methyl-beta-D-ribofuranosyl]-7H-pyrrolo[2,3-d]pyrimidin-4-amine]
[1]; [2]
  EC50: 1.47 nM
[1]; [3]
  EC50: 40 nM
PRMT5
  EC50: 39 nM

## C[C@@]1(O)[C@@H]([C@H](O)c2ccc(F)c(Cl)c2)O[C@@H](n2ccc3c(N)ncnc32)[C@@H]1O [Example 15, 7-[(5R)-5-C-(3-chloro-4-fluorophenyl)-3-C-methyl-beta-D-ribofuranosyl]-7H-pyrrolo[2,3-d]pyrimidin-4-amine]
[1]; [2]
  EC50: 0.51 nM
[1]; [3]
  EC50: 75 nM
PRMT5
  EC50: 65 nM

## C[C@@]1(O)[C@@H]([C@H](O)c2cccc3c2CNCC3)O[C@@H](n2ccc3c(N)ncnc32)[C@@H]1O [Example 70, 7-[(5R)-3-C-methyl-5-C-(1,2,3,4-tetrahydroisoquinolin-8-yl)-beta-D-ribofuranosyl]-7H-pyrrolo[2,3-d]pyrimidin-4-amine]
[1]; [2]
  EC50: 1.79 nM
[1]; [3]
  EC50: 42 nM
PRMT5
  EC50: 1190 nM

## Cc1ncnc2c1ccn2[C@@H]1O[C@H]([C@H](C)c2cccc3c2CNCC3)[C@@](C)(O)[C@H]1O [Example 86, (2R,3S,4R,5R)-3-methyl-5-(4-methyl-7H-pyrrolo[2,3-d]pyrimidin-7-yl)-2-((R)-1-(1,2,3,4-tetrahydroisoquinolin-8-yl)ethyl)tetrahydrofuran-3,4-diol]
[1]; [2]
  EC50: 343 nM
[1]; [3]
  EC50: 33100 nM
PRMT5
  EC50: > 10000 nM

## C=C(c1cccc2c1CNCC2)[C@H]1O[C@@H](n2ccc3c(C)ncnc32)[C@H](O)[C@]1(C)O [Example 85, (2R,3S,4R,5R)-3-methyl-5-(4-methyl-7H-pyrrolo[2,3-d]pyrimidin-7-yl)-2-(1-(1,2,3,4-tetrahydroisoquinolin-8-yl)vinyl)tetrahydrofuran-3,4-diol]
[1]; [2]
  EC50: 34 nM
[1]; [3]
  EC50: 2660 nM
PRMT5
  EC50: 9380 nM

## C[C@H](c1cc(F)cc(C(F)F)c1)[C@H]1O[C@@H](n2ccc3c(N)ncnc32)[C@H](O)[C@]1(C)O (single isomer, unassigned) [Example 83]
PRMT5
  EC50: 120 nM

## C[C@@]1(O)[C@@H]([C@@H](O)c2cccc(C(F)(F)F)c2)O[C@@H](n2ccc3c(N)ncnc32)[C@@H]1O [Example 55, 7-{(5S)-3-C-methyl-5-C-[3-(trifluoromethyl)phenyl]-beta-D-ribofuranosyl}-7H-pyrrolo[2,3-d]pyrimidin-4-amine]
PRMT5
  EC50: > 10000 nM

## Cc1ccccc1[C@H](O)[C@H]1O[C@@H](n2ccc3c(N)ncnc32)[C@H](O)[C@]1(C)O [Example 41, 7-[(5S)-3-C-methyl-5-C-(2-methylphenyl)-beta-D-ribofuranosyl]-7H-pyrrolo[2,3-d]pyrimidin-4-amine]
PRMT5
  EC50: > 10000 nM

## COc1cccc([C@@H](O)[C@H]2O[C@@H](n3ccc4c(N)ncnc43)[C@H](O)[C@]2(C)O)c1 [Example 36, 7-[(5R)-5-C-(3-methoxyphenyl)-3-C-methyl-beta-D-ribofuranosyl]-7H-pyrrolo[2,3-d]pyrimidin-4-amine]
PRMT5
  EC50: 997 nM

## C[C@@]1(O)[C@@H]([C@@H](O)c2cc(F)cc(C(F)F)c2F)O[C@@H](n2ccc3c(N)ncnc32)[C@@H]1O [Example 7, (2R,3S,4R,5R)-5-(4-amino-7H-pyrrolo[2,3-d]pyrimidin-7-yl)-2-((S)-(3-(difluoromethyl)-2,5-difluorophenyl)(hydroxy)methyl)-3-methyltetrahydrofuran-3,4-diol]
PRMT5
  EC50: 6550 nM

## COc1cccc([C@H](O)[C@H]2O[C@@H](n3ccc4c(N)ncnc43)[C@H](O)[C@]2(C)O)c1 [Example 37, 7-[(5S)-5-C-(3-methoxyphenyl)-3-C-methyl-beta-D-ribofuranosyl]-7H-pyrrolo[2,3-d]pyrimidin-4-amine]
PRMT5
  EC50: > 10000 nM

## C[C@@]1(O)[C@@H]([C@@H](O)c2ccc(F)c(C(F)F)c2F)O[C@@H](n2ccc3c(N)ncnc32)[C@@H]1O [Example 68, 7-{(5S)-5-C-[3-(difluoromethyl)-2,4-difluorophenyl]-3-C-methyl-beta-D-ribofuranosyl}-7H-pyrrolo[2,3-d]pyrimidin-4-amine]
PRMT5
  EC50: > 10000 nM

## C[C@@]1(O)[C@@H]([C@@H](O)c2ccc(F)cc2Cl)O[C@@H](n2ccc3c(N)ncnc32)[C@@H]1O [Example 49, 7-[(5S)-5-C-(2-chloro-4-fluorophenyl)-3-C-methyl-beta-D-ribofuranosyl]-7H-pyrrolo[2,3-d]pyrimidin-4-amine]
PRMT5
  EC50: > 10000 nM

## C[C@@]1(O)[C@@H]([C@H](O)c2cc(F)cc(Cl)c2)O[C@@H](n2ccc3c(N)ncnc32)[C@@H]1O [Example 26, 7-[(5R)-5-C-(3-chloro-5-fluorophenyl)-3-C-methyl-beta-D-ribofuranosyl]-7H-pyrrolo[2,3-d]pyrimidin-4-amine]
PRMT5
  EC50: 34 nM

## C[C@@]1(O)[C@@H]([C@H](O)c2cc(F)cc(C(F)(F)F)c2)O[C@@H](n2ccc3c(N)ncnc32)[C@@H]1O [Example 58, 7-{(5R)-5-C-[3-fluoro-5-(trifluoromethyl)phenyl]-3-C-methyl-beta-D-ribofuranosyl}-7H-pyrrolo[2,3-d]pyrimidin-4-amine]
PRMT5
  EC50: 301 nM

## C[C@@]1(O)[C@@H]([C@H](O)c2ccc(F)c(C(F)F)c2F)O[C@@H](n2ccc3c(N)ncnc32)[C@@H]1O [Example 67, 7-{(5R)-5-C-[3-(difluoromethyl)-2,4-difluorophenyl]-3-C-methyl-beta-D-ribofuranosyl}-7H-pyrrolo[2,3-d]pyrimidin-4-amine]
PRMT5
  EC50: 435 nM

## C[C@@]1(O)[C@@H]([C@@H](O)c2cncc(C(F)F)c2)O[C@@H](n2ccc3c(N)ncnc32)[C@@H]1O [Example 75, 7-{(5S)-5-C-[5-(difluoromethyl)pyridin-3-yl]-3-C-methyl-beta-D-ribofuranosyl}-7H-pyrrolo[2,3-d]pyrimidin-4-amine]
PRMT5
  EC50: > 10000 nM

## C[C@@]1(O)[C@@H]([C@@H](O)c2cccc(C(F)F)c2)O[C@@H](n2ccc3c(N)ncnc32)[C@@H]1O [Example 57, 7-{(5S)-5-C-[3-(difluoromethyl)phenyl]-3-C-methyl-beta-D-ribofuranosyl}-7H-pyrrolo[2,3-d]pyrimidin-4-amine]
PRMT5
  EC50: > 10000 nM

## C[C@@]1(O)[C@@H]([C@H](O)c2cccc(Cl)c2F)O[C@@H](n2ccc3c(N)ncnc32)[C@@H]1O [Example 46, 7-[(5R)-5-C-(3-chloro-2-fluorophenyl)-3-C-methyl-beta-D-ribofuranosyl]-7H-pyrrolo[2,3-d]pyrimidin-4-amine]
PRMT5
  EC50: 407 nM
